Nine molecules from ChEMBL document CHEMBL3397033, “Bioactive benzofuran derivatives: moracins A-Z in medicinal chemistry” (Eur J Med Chem, 2015) can be followed below.

In brackets after ≈: the same amount, converted by molar mass. Bounds are passed on as bounds.

The nature of series [1]: Antifungal activity against Stigmina mori. Format: functional.
Series [2] in a line: Antifungal activity against Cochliobolus miyabeanus. Type of series: functional. To be noted: Bipolaris oryzae.
The test system of series [3] is Pseudomonas aeruginosa. Nature of the series: Antimicrobial activity against Pseudomonas aeruginosa. Format: functional.
The nature of series [4]: Antifungal activity against Fusarium roseum. Format: functional.
Series [5] deals with Klebsiella pneumoniae. Nature of the series: Antimicrobial activity against Klebsiella pneumoniae. Type of series: functional.
Series [6] has as its system Escherichia coli. Nature of the series: Antimicrobial activity against Escherichia coli. Format: functional.
The nature of series [7]: Antifungal activity against Diaporthe nomurai. Type of series: functional.
Series [8] concerns Rosellinia necatrix. Briefly: Antifungal activity against Rosellinia necatrix. Format: functional.
The nature of series [9]: Antifungal activity against Fusarium solani f. sp. mori. Format: functional.
Series [10] is described as follows: Antifungal activity against Fusarium lateritium f. sp. mori. Type of series: functional.
The subject of series [11] is A2780. Nature of the series: Cytotoxicity against human A2780 cells after 96 hrs by MTT assay. Type of series: functional, cell-based. To be noted: A2780, 96 h. On the technique in general: Tetrazolium dyes change colour on reduction, which living cells bring about.
The nature of series [12]: Cytotoxicity against human HCT8 cells after 96 hrs by MTT assay. To be noted: HCT-8, 96 h. Format: functional, cell-based.
The nature of series [13]: Cytotoxicity against human Bel7402 cells after 96 hrs by MTT assay. Type of series: functional, cell-based. To be noted: Bel-7402, 96 h.
The subject of series [14] is A549. Briefly: Cytotoxicity against human A549 cells after 96 hrs by MTT assay. Type of series: functional, cell-based. To be noted: A549, 96 h.
Series [15] can be described thus: Cytotoxicity against human BGC823 cells after 96 hrs by MTT assay. Format: functional, cell-based. The following applies: BGC-823, 96 h.
A short description of series [16]: Antioxidant activity assessed as DPPH radical scavenging activity measured as discoloration at 50 ug/ml. Format: physicochemical.
Series [17] in a line: Antioxidant activity assessed as DPPH radical scavenging activity measured as discoloration at 25 ug/ml. Type of series: physicochemical.
Series [18] relates to Microsporum audouinii. Briefly: Microbicidal activity against Microsporum audouinii by liquid microdilution assay. Type of series: functional. (Broth dilution looks for growth in wells or tubes with falling amounts of substance.)
Series [19] has as its system Bacillus cereus. Briefly: Microbicidal activity against Bacillus cereus by liquid microdilution assay. Type of series: functional.
Series [20] has as its system Klebsiella pneumoniae. Nature of the series: Antimicrobial activity against Klebsiella pneumoniae by liquid microdilution assay. Format: functional.
For series [21], the system named is Pseudomonas aeruginosa. Briefly: Antimicrobial activity against Pseudomonas aeruginosa by liquid microdilution assay. Type of series: functional.
Series [22] has as its system Shigella dysenteriae. Briefly: Antimicrobial activity against Shigella dysenteriae by liquid microdilution assay. Format: functional.
Series [23] relates to Salmonella typhi. Briefly: Microbicidal activity against Salmonella typhi by liquid microdilution assay. Format: functional, Salmonella enterica subsp. enterica serovar Typhi. To be noted: Salmonella enterica.
Series [24] relates to Bacillus cereus. Briefly: Antimicrobial activity against Bacillus cereus by liquid microdilution assay. Format: functional.
Series [25] relates to Klebsiella pneumoniae. Nature of the series: Microbicidal activity against Klebsiella pneumoniae by liquid microdilution assay. Format: functional.
Series [26] has as its system Citrobacter freundii. Briefly: Microbicidal activity against Citrobacter freundii by liquid microdilution assay. Type of series: functional.
Series [27] concerns Microsporum audouinii. Nature of the series: Antimicrobial activity against Microsporum audouinii by liquid microdilution assay. Format: functional.
The nature of series [28]: Antioxidant activity assessed as DPPH radical scavenging activity measured as discoloration at 12.5 ug/ml. Type of series: physicochemical. In general terms: DPPH is a stable violet radical that fades when it is reduced.
Series [29] relates to Pseudomonas aeruginosa. Nature of the series: Microbicidal activity against Pseudomonas aeruginosa by liquid microdilution assay. Type of series: functional.
The subject of series [30] is Enterococcus faecalis. Briefly: Microbicidal activity against Streptococcus faecalis by liquid microdilution assay. Format: functional.
In series [31] the test system is Enterococcus faecalis. Nature of the series: Antimicrobial activity against Streptococcus faecalis by liquid microdilution assay. Format: functional.
The subject of series [32] is Escherichia coli. Nature of the series: Microbicidal activity against Escherichia coli by liquid microdilution assay. Type of series: functional.
Series [33] concerns Staphylococcus aureus. Briefly: Microbicidal activity against Staphylococcus aureus by liquid microdilution assay. Format: functional.
Series [34] is described as follows: Antioxidant activity assessed as DPPH radical scavenging activity measured as discoloration at 100 ug/ml. Format: physicochemical.
The test system of series [35] is Citrobacter freundii. Briefly: Antimicrobial activity against Citrobacter freundii by liquid microdilution assay. Type of series: functional.
For series [36], the system named is Staphylococcus aureus. Briefly: Antimicrobial activity against Staphylococcus aureus by liquid microdilution assay. Type of series: functional.
A short description of series [37]: Antioxidant activity assessed as DPPH radical scavenging activity. Type of series: physicochemical.
The subject of series [38] is Candida albicans. Briefly: Antimicrobial activity against Candida albicans by liquid microdilution assay. Type of series: functional.
In series [39] the test system is Shigella dysenteriae. Briefly: Microbicidal activity against Shigella dysenteriae by liquid microdilution assay. Type of series: functional.
For series [40], the system named is Salmonella typhi. Nature of the series: Antimicrobial activity against Salmonella typhi by liquid microdilution assay. Format: functional, Salmonella enterica subsp. enterica serovar Typhi. To be noted: Salmonella enterica.
Series [41] relates to Candida albicans. Briefly: Microbicidal activity against Candida albicans by liquid microdilution assay. Type of series: functional.
Series [42] has as its system Escherichia coli. Nature of the series: Antimicrobial activity against Escherichia coli by liquid microdilution assay. Type of series: functional.

As to `COc1cc2cc(-c3cc(O)cc(O)c3)oc2cc1OC`, the MIC in series [1] is 50 µg/mL (≈ 175 µM); in series [2] it was 100 µg/mL (≈ 349 µM); in series [3], > 100 µg/mL; in series [4], 50 µg/mL (≈ 175 µM); in series [5] it was > 100 µg/mL; in series [6], > 100 µg/mL. The MIC in [7] is 1000 µg/mL (≈ 3490 µM); in series [8], 50 µg/mL (≈ 175 µM); in series [9] it was 1000 µg/mL (≈ 3490 µM); in series [10] it was 200 µg/mL (≈ 699 µM).

In the case of `O=Cc1cc2cc(-c3cc(O)cc(O)c3)oc2cc1O`, the IC50 was 6.9 µg/mL (≈ 25.5 µM) in [11]; 6.3 µg/mL (≈ 23.3 µM) in series [12]; 6.8 µg/mL (≈ 25.2 µM) in series [13]; > 10 µg/mL in [14]; 7.6 µg/mL (≈ 28.1 µM) in series [15]. In addition, the MIC in [3], in series [5] and in series [6] was > 100 µg/mL each time.

For `COc1c(O)cc2oc(-c3cc(O)cc(O)c3)cc2c1CC=C(C)C`, the Activity in [16] is on record as 71.72%; in series [17], 65.63%; in series [28], 61.58%; in series [34], 83.04%. Moreover, the MIC in series [3] was > 100 µg/mL; in series [5], > 100 µg/mL; in [20] it was 39 µg/mL (≈ 115 µM); in [21] it was 5 µg/mL (≈ 14.7 µM); in [22] it was 5 µg/mL (≈ 14.7 µM); in [24], 5 µg/mL (≈ 14.7 µM). Further, the MIC in [27] was 39 µg/mL (≈ 115 µM); in series [6] it was > 100 µg/mL; in series [31], 10 µg/mL (≈ 29.4 µM); in series [35] it was 156 µg/mL (≈ 458 µM); in series [36], 10 µg/mL (≈ 29.4 µM); in series [38] it was 10 µg/mL (≈ 29.4 µM). Moreover, the MIC in series [40] and in series [42] was 5 µg/mL (≈ 14.7 µM) in each case. Further, the MFC in [18] was found to be 78 µg/mL (≈ 229 µM); in [41], 20 µg/mL (≈ 58.8 µM). Moreover, the MBC in series [19] came out at 39 µg/mL (≈ 115 µM); in series [23], 20 µg/mL (≈ 58.8 µM); in series [25], 78 µg/mL (≈ 229 µM); in [26], 312 µg/mL (≈ 917 µM); in [29], 20 µg/mL (≈ 58.8 µM); in series [30] it was 39 µg/mL (≈ 115 µM). Besides, the MBC in series [32] was determined as 10 µg/mL (≈ 29.4 µM); in series [33] it was 39 µg/mL (≈ 115 µM); in series [39] it was 10 µg/mL (≈ 29.4 µM). Moreover, the EC50 in series [37] was 4.12 µg/mL (≈ 12.1 µM).

As to `COc1cc2oc(-c3cc(O)cc(O)c3)cc2cc1O`, the MIC in [3], in series [5] and in series [6] was > 100 µg/mL in each case.

As for `C/C(=C/Cc1c(O)c2c(c3cc(-c4cc(O)cc(O)c4)oc13)C=CC(C)(C)O2)CCCC(C)(C)O`, the IC50 in [11] is > 10 µg/mL; in series [12], 9.2 µg/mL (≈ 19.2 µM); in series [13], > 10 µg/mL; in series [14], > 10 µg/mL; in series [15] it was 8.3 µg/mL (≈ 17.3 µM). The MIC in series [3], in series [5] and in series [6] was > 100 µg/mL throughout.

`CC(C)=CCc1c(O)ccc2cc(-c3cc(O)cc(O)c3)oc12`: the Activity in series [16] turned out to be 67.87%; in series [17], 62.25%; in [28] it was 55%; in [34] it was 69.72%. In addition, the MIC in series [3], in series [5] and in series [6] was > 100 µg/mL throughout. Also, the EC50 in series [37] stood at 5.06 µg/mL (≈ 16.3 µM).

`COc1cc(OC)c2cc(-c3cc(O)cc(O)c3)oc2c1`: the MIC in [3], in [5] and in [6] was > 100 µg/mL each time.

Regarding `CC1(C)C=Cc2c(c(O)cc3cc(-c4cc(O)cc(O)c4)oc23)O1`, the MIC in [3], in series [5] and in series [6] was > 100 µg/mL each time.

On to `CC1(C)C=Cc2c(cc(O)cc2-c2cc3ccc(O)cc3o2)O1`, for which the MIC in [1] is 200 µg/mL (≈ 649 µM); in [2] it was 100 µg/mL (≈ 324 µM); in [3], > 100 µg/mL; in series [4] it was 15 µg/mL (≈ 48.6 µM); in series [5], > 100 µg/mL; in series [6], > 100 µg/mL. Further, the MIC was 15 µg/mL (≈ 48.6 µM) in series [7], 15 µg/mL (≈ 48.6 µM) in series [8], 200 µg/mL (≈ 649 µM) in series [9] and 50 µg/mL (≈ 162 µM) in series [10].

The MIC is the lowest concentration found to suppress growth. A lower MIC goes with greater potency. One may read the IC50 as the concentration at which inhibition is half-maximal. For orientation: MBC means the lowest tested concentration that kills the bacteria rather than only halting them. By EC50 is commonly meant the concentration giving half of the maximal effect.
